{"source": "patent US11279733B2", "about": "“Peptide antibiotics” (priority 2017, dated 2022)", "key": {"[1]": {"test_system": "A. baumannii ATCC 19606", "how_it_was_run": "(§1)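 Mid-log cultures grown in Mueller Hinton broth at 37° C were tested by 2-fold broth microdilution at 5×10^5 CFU/mL final. Compounds were dissolved in water and tested over a final range of 32 to 0.015 μg/mL.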"}, "[2]": {"test_system": "A. baumannii GN_093 PmxR", "how_it_was_run": "as §1"}, "[3]": {"test_system": "E. coli ATCC 25922", "how_it_was_run": "as §1"}, "[4]": {"test_system": "K. pneumoniae ATCC 13883", "how_it_was_run": "as §1"}, "[5]": {"test_system": "K. pneumoniae ATCC 700603, MDR", "how_it_was_run": "as §1"}, "[6]": {"test_system": "K. pneumoniae ATCC BAA-2146, NDM-1 pos", "how_it_was_run": "as §1"}, "[7]": {"test_system": "K. pneumoniae GN_102 PmxR", "how_it_was_run": "as §1"}, "[8]": {"test_system": "K. pneumoniae GN_106, PmxR", "how_it_was_run": "as §1"}, "[9]": {"test_system": "P. aeruginosa ATCC 27853", "how_it_was_run": "as §1"}, "[10]": {"test_system": "P. aeruginosa GN_043, PmxR", "how_it_was_run": "as §1"}, "[11]": {"test_system": "P. aeruginosa GN_105, PmxR", "how_it_was_run": "as §1"}, "[12]": {"test_system": "S. aureus ATCC 25923, MSSA", "how_it_was_run": "as §1"}, "[13]": {"test_system": "HEK293 cells", "test": "Cytotoxicity, resazurin assay, HEK293", "how_it_was_run": "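Viability is measured by resazurin reduction (5 μM, 2 h, 37 °C) after cells seeded at 4000 per well are treated with compound for 24 h.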"}}, "note": "Where two headings read alike, the source gives them in different places.", "data": [{"substance": "polymyxin B sulfate [PolymyxinB, reference compound]", "values": [{"measurement": "MIC A. baumannii ATCC 19606", "setting": "[1]", "value": 0.25, "unit": "µg/mL"}, {"measurement": "MIC A. baumannii ATCC 19606", "setting": "[1]; A. baumannii ATCC 19606", "value": 0.25, "unit": "µg/mL"}, {"measurement": "MIC, A. baumannii ATCC 19606", "setting": "[1]; Table 5", "value": 0.25, "unit": "µg/mL"}, {"measurement": "MIC, A. baumannii ATCC 19606", "setting": "[1]; Table 6", "value": 0.25, "unit": "µg/mL"}, {"measurement": "MIC A. baumannii GN_093 PmxR", "setting": "[2]", "value": 64, "unit": "µg/mL"}, {"measurement": "MIC A. baumannii GN_093 PmxR", "setting": "[2]; A. baumannii GN_093 PmxR", "value": 64, "unit": "µg/mL"}, {"measurement": "MIC, A. baumannii Cl Ptyela 10073 4512:2, PmxR", "setting": "[2]; Table 5, polymyxin-resistant", "value": 64, "unit": "µg/mL"}, {"measurement": "MIC A. baumannii GN_093 PmxR", "setting": "[2]; Table 6, polymyxin-resistant", "value": 64, "unit": "µg/mL"}, {"measurement": "MIC A. baumannii GN_093 PmxR", "setting": "[2]; polymyxin-resistant", "value": 64, "unit": "µg/mL"}, {"measurement": "MIC A. baumannii Cl Ptyela 10073 4512:2, PmxR", "setting": "[2]; strain name as in Table 11", "value": 64, "unit": "µg/mL"}, {"measurement": "MIC E. coli ATCC 25922", "setting": "[3]", "value": 0.25, "unit": "µg/mL"}, {"measurement": "MIC E. coli ATCC 25922", "setting": "[3]; E. coli ATCC 25922", "value": 0.25, "unit": "µg/mL"}, {"measurement": "MIC, E. coli ATCC 25922", "setting": "[3]; Table 5", "value": 0.25, "unit": "µg/mL"}, {"measurement": "MIC, E. coli ATCC 25922", "setting": "[3]; Table 6", "value": 0.25, "unit": "µg/mL"}, {"measurement": "MIC K. pneumoniae ATCC 13883", "setting": "[4]", "value": 1, "unit": "µg/mL"}, {"measurement": "MIC K. pneumoniae ATCC 13883", "setting": "[4]; K. pneumoniae ATCC 13883", "value": 1, "unit": "µg/mL"}, {"measurement": "MIC, K. pneumoniae ATCC 13883", "setting": "[4]; Table 5", "value": 1, "unit": "µg/mL"}, {"measurement": "MIC, K. pneumoniae ATCC 13883", "setting": "[4]; Table 6", "value": 1, "unit": "µg/mL"}, {"measurement": "MIC K. pneumoniae ATCC 700603, MDR", "setting": "[5]", "value": 0.5, "unit": "µg/mL"}, {"measurement": "MIC K. pneumoniae ATCC 700603, MDR", "setting": "[5]; K. pneumoniae ATCC 700603, MDR", "value": 0.5, "unit": "µg/mL"}, {"measurement": "MIC, K. pneumoniae ATCC 700603, MDR", "setting": "[5]; Table 5", "value": 0.5, "unit": "µg/mL"}, {"measurement": "MIC, K. pneumoniae ATCC 700603, MDR", "setting": "[5]; Table 6", "value": 0.5, "unit": "µg/mL"}, {"measurement": "MIC K. pneumoniae ATCC BAA-2146, NDM-1 pos", "setting": "[6]", "value": 0.25, "unit": "µg/mL"}, {"measurement": "MIC K. pneumoniae ATCC BAA-2146, NDM-1 pos", "setting": "[6]; K. pneumoniae ATCC BAA-2146, NDM-1 pos", "value": 0.25, "unit": "µg/mL"}, {"measurement": "MIC, K. pneumoniae ATCC BAA-2146, NDM-1 pos", "setting": "[6]; Table 5", "value": 0.25, "unit": "µg/mL"}, {"measurement": "MIC, K. pneumoniae ATCC BAA-2146, NDM-1 pos", "setting": "[6]; Table 6", "value": 0.25, "unit": "µg/mL"}, {"measurement": "MIC K. pneumoniae GN_102 PmxR", "setting": "[7]", "value": 64, "unit": "µg/mL"}, {"measurement": "MIC K. pneumoniae GN_102 PmxR", "setting": "[7]; K. pneumoniae GN_102 PmxR", "value": 64, "unit": "µg/mL"}, {"measurement": "MIC, K. pneumoniae Cl Koprana 10065 0661:1, PmxR", "setting": "[7]; Table 5, polymyxin-resistant", "value": 64, "unit": "µg/mL"}, {"measurement": "MIC K. pneumoniae GN_102 PmxR", "setting": "[7]; Table 6, polymyxin-resistant", "value": 64, "unit": "µg/mL"}, {"measurement": "MIC K. pneumoniae GN_102 PmxR", "setting": "[7]; polymyxin-resistant", "value": 64, "unit": "µg/mL"}, {"measurement": "MIC K. pneumoniae Cl Koprana 10065 0661:1 PmxR", "setting": "[7]; strain name as in Table 11", "value": 64, "unit": "µg/mL"}, {"measurement": "MIC K. pneumoniae GN_106, PmxR", "setting": "[8]", "value": 64, "unit": "µg/mL"}, {"measurement": "MIC K. pneumoniae GN_106, PmxR", "setting": "[8]; K. pneumoniae GN_106, PmxR", "value": 64, "unit": "µg/mL"}, {"measurement": "MIC, K. pneumoniae Cl 138-16347-20362, PmxR", "setting": "[8]; Table 5, polymyxin-resistant", "value": 64, "unit": "µg/mL"}, {"measurement": "MIC K. pneumoniae GN_106, PmxR", "setting": "[8]; Table 6, polymyxin-resistant", "value": 64, "unit": "µg/mL"}, {"measurement": "MIC K. pneumoniae GN_106, PmxR", "setting": "[8]; polymyxin-resistant", "value": 64, "unit": "µg/mL"}, {"measurement": "MIC K. pneumoniae Cl 183-16357-20352, PmxR", "setting": "[8]; strain name as in Table 11", "value": 64, "unit": "µg/mL"}, {"measurement": "MIC P. aeruginosa ATCC 27853", "setting": "[9]", "value": 0.5, "unit": "µg/mL"}, {"measurement": "MIC P. aeruginosa ATCC 27853", "setting": "[9]; P. aeruginosa ATCC 27853", "value": 0.5, "unit": "µg/mL"}, {"measurement": "MIC, P. aeruginosa ATCC 27853", "setting": "[9]; Table 5", "value": 0.5, "unit": "µg/mL"}, {"measurement": "MIC, P. aeruginosa ATCC 27853", "setting": "[9]; Table 6", "value": 0.5, "unit": "µg/mL"}, {"measurement": "MIC P. aeruginosa GN_043, PmxR", "setting": "[10]", "value": 64, "unit": "µg/mL"}, {"measurement": "MIC P. aeruginosa GN_043, PmxR", "setting": "[10]; P. aeruginosa GN_043, PmxR", "value": 64, "unit": "µg/mL"}, {"measurement": "MIC, P. aeruginosa FADDI-PA070, PmxR", "setting": "[10]; Table 5, polymyxin-resistant", "value": 64, "unit": "µg/mL"}, {"measurement": "MIC P. aeruginosa GN_043, PmxR", "setting": "[10]; Table 6, polymyxin-resistant", "value": 64, "unit": "µg/mL"}, {"measurement": "MIC P. aeruginosa GN_043, PmxR", "setting": "[10]; polymyxin-resistant", "value": 64, "unit": "µg/mL"}, {"measurement": "MIC, P. aeruginosa FADDI-PA070, PmxR", "setting": "[10]; strain name as in Table 11", "value": 64, "unit": "µg/mL"}, {"measurement": "MIC P. aeruginosa GN_105, PmxR", "setting": "[11]", "value": ">128", "unit": "µg/mL"}, {"measurement": "MIC P. aeruginosa GN_105, PmxR", "setting": "[11]; P. aeruginosa GN_105, PmxR", "value": ">128", "unit": "µg/mL"}, {"measurement": "MIC, P. aeruginosa PA9704, PmxR", "setting": "[11]; Table 5, polymyxin-resistant", "value": ">128", "unit": "µg/mL"}, {"measurement": "MIC P. aeruginosa GN_105, PmxR", "setting": "[11]; Table 6, polymyxin-resistant", "value": ">128", "unit": "µg/mL"}, {"measurement": "MIC P. aeruginosa GN_105, PmxR", "setting": "[11]; polymyxin-resistant", "value": ">128", "unit": "µg/mL"}, {"measurement": "MIC P. aeruginosa PA9704, PmxR", "setting": "[11]; strain name as in Table 11", "value": ">128", "unit": "µg/mL"}, {"measurement": "MIC S. aureus ATCC 25923, MSSA", "setting": "[12]", "value": ">64", "unit": "µg/mL"}, {"measurement": "MIC S. aureus ATCC 25923, MSSA", "setting": "[12]; S. aureus ATCC 25923, MSSA", "value": ">64", "unit": "µg/mL"}, {"measurement": "MIC, S. Aureus ATCC 25923, MSSA", "setting": "[12]; Table 5", "value": ">64", "unit": "µg/mL"}, {"measurement": "MIC, S. aureus ATCC 25923, MSSA", "setting": "[12]; Table 6", "value": ">64", "unit": "µg/mL"}, {"measurement": "CC50", "setting": "[13]; read-out: HEK-293-CC50, HEK293, 24 h", "value": "> 300", "unit": "µM"}, {"measurement": "CC50", "setting": "[13]; read-out: HEK-293-CC50, HEK293 cells", "value": "> 300", "unit": "µM"}, {"measurement": "CC50", "setting": "[13]; read-out: HEK-293-CC50, Table 5, HEK293 cells", "value": "> 300", "unit": "µM"}, {"measurement": "CC50", "setting": "[13]; read-out: HEK-293-CC50, Table 6, HEK293 cells", "value": "> 300", "unit": "µM"}, {"measurement": "CC50", "setting": "[13]; read-out: HEK-293 CC50, HEK293 cells", "value": "> 300", "unit": "µM"}]}]}
